Where a name gives a salt, the structure may show the parent alone. Read-outs that look alike come from different tables or passages of the source.
Assays:
human PI3Kα protein = target: T1, human PI3Kα protein (Homo sapiens, UniProt P42336); experiment: PI3Kα enzyme assay (ADP-Glo); type: biochemical; details: read-out: PI3Kα enzyme inhibitory activity
T1 construct: purchased Carna Biosciences, Inc; host or cells: baculovirus expression system
Method in brief: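 Biotinylated human PI3Kα (baculovirus-expressed, 4.5 nmol/L) pre-incubated 15 min with compound in Tris-HCl pH 7.5, MgCl2, BSA; reaction 60 min at 25° C with 50 μmol/L PIP2 and 100 μmol/L ATP final. ADP quantified by ADP-Glo luminescence; IC50 calculated.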

[1] = target: T2, GST fusion human ERK2 protein (Homo sapiens, UniProt P28482); experiment: ERK2 enzyme assay (1); type: biochemical; details: read-out: ERK2 enzyme inhibitory activity (1)
T2 construct: purchased Carna Biosciences, Inc; host or cells: E. coli expression system
Method in brief: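 IC50 derived from the proportion of phosphorylated 5-FAM peptide, separated from unphosphorylated peptide by microfluidic mobility shift. Compound was first preincubated 15 min at room temperature with 2.5 nmol/L kinase at pH 7.5, then 43.1 μmol/L ATP plus 4.25 μmol/L substrate reacted 120 min at 25 °C.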

[2] = 4.5 nmol/L PI3Kα, PIP2 50 μmol/L, ATP 100 μmol/L
[3] = 2.5 nmol/L ERK2, ATP 43.1 μmol/L

T1 sequence (P42336 whole entry): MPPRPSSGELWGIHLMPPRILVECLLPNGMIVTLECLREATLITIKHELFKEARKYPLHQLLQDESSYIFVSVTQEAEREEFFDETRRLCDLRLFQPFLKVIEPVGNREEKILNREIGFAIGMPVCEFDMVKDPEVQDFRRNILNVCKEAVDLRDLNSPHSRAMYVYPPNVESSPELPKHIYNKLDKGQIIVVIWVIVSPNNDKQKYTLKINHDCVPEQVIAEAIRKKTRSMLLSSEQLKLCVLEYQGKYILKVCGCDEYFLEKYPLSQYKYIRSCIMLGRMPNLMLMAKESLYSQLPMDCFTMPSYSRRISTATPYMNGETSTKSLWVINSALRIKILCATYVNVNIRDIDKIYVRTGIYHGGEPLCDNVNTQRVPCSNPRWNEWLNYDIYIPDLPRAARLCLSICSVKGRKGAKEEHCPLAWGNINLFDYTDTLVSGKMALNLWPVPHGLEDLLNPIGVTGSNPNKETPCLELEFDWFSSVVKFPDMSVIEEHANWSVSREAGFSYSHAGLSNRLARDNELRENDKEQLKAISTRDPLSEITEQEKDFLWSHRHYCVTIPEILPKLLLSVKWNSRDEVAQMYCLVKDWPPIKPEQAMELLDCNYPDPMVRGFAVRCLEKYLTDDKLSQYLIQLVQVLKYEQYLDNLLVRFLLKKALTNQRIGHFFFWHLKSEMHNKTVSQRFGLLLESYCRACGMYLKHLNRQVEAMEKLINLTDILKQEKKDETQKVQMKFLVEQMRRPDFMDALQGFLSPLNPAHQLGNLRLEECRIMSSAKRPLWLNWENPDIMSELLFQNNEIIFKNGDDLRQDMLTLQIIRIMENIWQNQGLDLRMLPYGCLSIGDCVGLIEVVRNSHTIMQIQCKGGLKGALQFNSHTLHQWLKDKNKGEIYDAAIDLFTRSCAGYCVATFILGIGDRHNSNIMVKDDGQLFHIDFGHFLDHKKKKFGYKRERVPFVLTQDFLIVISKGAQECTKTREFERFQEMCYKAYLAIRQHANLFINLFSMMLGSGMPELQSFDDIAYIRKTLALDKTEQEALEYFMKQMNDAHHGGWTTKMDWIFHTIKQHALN
T1 sequence (P27986 whole entry partner): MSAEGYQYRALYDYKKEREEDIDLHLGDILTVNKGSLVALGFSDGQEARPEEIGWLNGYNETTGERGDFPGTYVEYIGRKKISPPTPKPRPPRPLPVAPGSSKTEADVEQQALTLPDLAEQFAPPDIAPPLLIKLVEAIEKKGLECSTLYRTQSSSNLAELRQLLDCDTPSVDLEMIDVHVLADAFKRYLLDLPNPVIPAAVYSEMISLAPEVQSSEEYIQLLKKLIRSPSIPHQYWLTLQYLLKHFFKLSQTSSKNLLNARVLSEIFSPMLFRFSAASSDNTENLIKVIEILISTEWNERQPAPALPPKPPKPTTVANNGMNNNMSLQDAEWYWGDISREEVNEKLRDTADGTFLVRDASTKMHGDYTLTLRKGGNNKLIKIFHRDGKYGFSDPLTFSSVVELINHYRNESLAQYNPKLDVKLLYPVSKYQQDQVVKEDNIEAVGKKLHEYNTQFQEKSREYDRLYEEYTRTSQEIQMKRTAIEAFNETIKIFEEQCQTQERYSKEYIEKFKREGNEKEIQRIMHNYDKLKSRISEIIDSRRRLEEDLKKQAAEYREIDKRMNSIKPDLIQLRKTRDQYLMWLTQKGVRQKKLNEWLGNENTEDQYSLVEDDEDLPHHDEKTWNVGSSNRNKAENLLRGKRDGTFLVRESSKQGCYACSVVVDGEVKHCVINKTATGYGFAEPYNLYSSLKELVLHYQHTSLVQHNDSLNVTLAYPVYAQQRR
T2 sequence (P28482 whole entry, the tested form may be a part): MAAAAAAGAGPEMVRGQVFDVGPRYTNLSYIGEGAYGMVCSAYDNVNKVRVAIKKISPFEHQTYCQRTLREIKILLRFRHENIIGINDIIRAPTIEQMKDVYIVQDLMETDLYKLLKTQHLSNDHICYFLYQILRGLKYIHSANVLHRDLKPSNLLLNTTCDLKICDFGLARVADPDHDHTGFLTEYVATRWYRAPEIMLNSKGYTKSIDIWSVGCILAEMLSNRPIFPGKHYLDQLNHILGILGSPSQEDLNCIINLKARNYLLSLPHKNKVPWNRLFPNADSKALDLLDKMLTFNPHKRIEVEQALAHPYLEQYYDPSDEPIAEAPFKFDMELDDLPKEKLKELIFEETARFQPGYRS

Structure (SMILES) | IC50 (human PI3Kα protein; [2]) | IC50 [1, 3] | IC50 (human PI3Kα protein) | IC50 ([1]; ERK2 enzyme assay (1))
c1ncc(N2CCCCC2)cc1Nc1cnc2ccc(Nc3nnc(C4CCCC4)s3)nc2c1 [Example 0101] | < 1000 nM | < 1000 nM |  | 
c1cc(Nc2cnc3ccc(Nc4nnc(C5CCCC5)s4)nc3c2)ncn1 [Example 0210] |  |  | < 1000 nM | < 1000 nM
CN(c1cnc2ccc(Nc3nnc(C4CCCC4)s3)nc2c1)c1cnn(C)c1 [Example 0195, N^2-(5-cyclopentyl-1,3,4-thiadiazol-2-yl)-N^7-methyl-N^7-(1-methyl-1H-pyrazol-4-yl)-1,5-naphthyridine-2,7-diamine] | 1000 to 10000 nM | < 1000 nM |  | 
c1cc(-c2ccnc3ccc(Nc4nncs4)nc23)ccn1 [Example 0275] |  |  | < 1000 nM | < 1000 nM
Cn1cc(-c2cnc3ccc(Nc4ccccn4)nc3c2)cn1 [Example 0036, 7-(1-methyl-1H-pyrazol-4-yl)-N-(pyridin-2-yl)-1,5-naphthyridine-2-amine] | 1000 to 10000 nM | 1000 to 10000 nM |  | 
O=C(c1ccc(Nc2cnc3ccc(Nc4nnc(C5CCCC5)s4)nc3c2)cn1)N1CCOCC1 [Example 0106] | < 1000 nM | < 1000 nM |  | 
c1ccc2c(Nc3cnc4ccc(Nc5nnc(C6CCCC6)s5)nc4c3)cncc2c1 [Example 0075] | < 1000 nM | 1000 to 10000 nM |  | 
COc1ccc(-c2ccnc3ccc(Nc4nnc(C(C)C)s4)nc23)cc1 [Example 0272] |  |  | 1000 to 10000 nM | < 1000 nM
CC(C)c1nnc(Nc2ccc3nccc(-c4cn[nH]c4)c3n2)s1 [Example 0284] |  |  | < 1000 nM | 1000 to 10000 nM
Cn1cc(-c2cnc3ccc(Nc4nnc(S(=O)(=O)Nc5ccccc5)s4)nc3c2)cn1 [Example 0176, 5-((7-(1-methyl-1H-pyrazol-4-yl)-1,5-naphthyridin-2-yl)amino)-N-phenyl-1,3,4-thiadiazole-2-sulfonamide] | < 1000 nM | < 1000 nM |  | 
CC(C)c1nnc(Nc2ccc3nccc(-c4ccnnc4)c3n2)s1 [Example 0283] |  |  | < 1000 nM | < 1000 nM
CS(=O)(=O)N1CCC(Nc2cnc3ccc(Nc4nnc(C5CCCC5)s4)nc3c2)CC1 [Example 0098] | < 1000 nM | < 1000 nM |  | 
COc1ccc(-c2cnc3ccc(Nc4nc(C)cs4)nc3c2)cc1OC [Example 0024, N-(7-(3,4-dimethoxyphenyl)-1,5-naphthyridin-2-yl)-4-methylthiazole-2-amine] | 1000 to 10000 nM | 10000 to 50000 nM |  | 
COCCNc1cnc2ccc(Nc3nnc(C4CCCC4)s3)nc2c1 [Example 0308] |  |  | 1000 to 10000 nM | < 1000 nM
CCc1nn(CCCN2CCOCC2)cc1-c1cnc2ccc(Nc3cc(C(C)C)cnn3)nc2c1 [Example 0385, 7-(3-ethyl-1-(3-morpholinopropyl)-1H-pyrazol-4-yl)-N-(5-isopropylpyridazin-3-yl)-1,5-naphthyridine-2-amine] |  |  | < 1000 nM | < 1000 nM
c1n[nH]cc1Nc1cnc2ccc(Nc3nnc(C4CCCCC4)s3)nc2c1 [Example 0223] |  |  | 1000 to 10000 nM | < 1000 nM
O[C@H]1CCN(c2cnc3ccc(Nc4nnc(C5CCCC5)s4)nc3c2)C1 [Example 0314] |  |  | 1000 to 10000 nM | < 1000 nM
Cn1cc(-c2cnc3ccc(Nc4ncc(C5CCCC5)s4)nc3c2)cn1 [Example 0127] | 1000 to 10000 nM | < 1000 nM |  | 
Cn1cc(-c2cnc3ccc(Nc4cncs4)nc3c2)cn1 [Example 0199, N-(7-(1-methyl-1H-pyrazol-4-yl)-1,5-naphthyridin-2-yl)thiazole-5-amine] | 1000 to 10000 nM | 1000 to 10000 nM |  | 
Cn1cc(-c2cnc3ccc(Nc4nnc(NS(C)(=O)=O)s4)nc3c2)cn1 [Example 0187, N-(5-((7-(1-methyl-1H-pyrazol-4-yl)-1,5-naphthyridin-2-yl)amino)-1,3,4-thiadiazol-2-yl)methane sulfonamide] | < 1000 nM | < 1000 nM |  | 
CN(c1cnc2ccc(Nc3nnc(C4CCCC4)s3)nc2c1)C1CCOC1 (centres unmarked) [Example 0326, N^2-(5-cyclopentyl-1,3,4-thiadiazol-2-yl)-N^7-methyl-N^7-(tetrahydrofuran-3-yl)-1,5-naphthyridine-2,7-diamine] |  |  | < 1000 nM | < 1000 nM
Cn1cc(-c2cnc3ccc(Nc4nnc(S(N)(=O)=O)s4)nc3c2)cn1 [Example 0191, ((5-((7-(1-methyl-1H-pyrazol-4-yl)-1,5-naphthyridin-2-yl)amino)-1,3,4-thiadiazol-2-yl)sulfonyl)amide sodium salt] | < 1000 nM | < 1000 nM |  | 
CC(C)c1nnc(Nc2ccc3nccc(-c4ccn[nH]4)c3n2)s1 [Example 0285] |  |  | < 1000 nM | < 1000 nM
CC(C)c1cnnc(Nc2ccc3ncc(-c4ccccn4)cc3n2)c1 [Example 0369] |  |  | 1000 to 10000 nM | < 1000 nM
COc1ccc(Nc2cnc3ccc(Nc4nnc(C5CCCC5)s4)nc3c2)cn1 [Example 0067] | < 1000 nM | < 1000 nM |  | 

Structure (SMILES) | IC50 (human PI3Kα protein; [2]) | IC50 [1, 3] | IC50 (human PI3Kα protein) | IC50 ([1]; ERK2 enzyme assay (1))
Cc1nnc(Nc2ccc3ncc(Nc4cn[nH]c4)cc3n2)s1 [Example 0182] | 1000 to 10000 nM | < 1000 nM |  | 
COc1ccc(Nc2ccnc3ccc(Nc4nnc(C(C)C)s4)nc23)cc1 [Example 0013] | < 1000 nM | 1000 to 10000 nM |  | 
CC(C)c1cnnc(Nc2ccc3ncc(-c4cn[nH]c4)cc3n2)c1 [Example 0153] | 1000 to 10000 nM | < 1000 nM |  | 
CCC1=C(OC)C(OC)=CC(Nc2cnc3ccc(Nc4nnc(C5CCCC5)s4)nc3c2)C1 (centres unmarked) [Example 0205] |  |  | < 1000 nM | < 1000 nM
CCC(C)(C)c1cnnc(Nc2ccc3ncc(-c4cnn(CCCN5CCCC5)c4)cc3n2)c1 [Example 0296] |  |  | < 1000 nM | < 1000 nM
CN1CCN(c2cnc3ccc(Nc4nnc(C5CCCC5)s4)nc3c2)CC1 [Example 0052] | 1000 to 10000 nM | < 1000 nM |  | 
CCCCCc1nnc(Nc2ccc3ncc(-c4cnn(C)c4)cc3n2)[nH]1 [Example 0299, 7-(1-methyl-1H-pyrazol-4-yl)-N-(5-pentyl-4H-1,2,4-triazol-3-yl)-1,5-naphthyridine-2-amine] |  |  | 10000 to 50000 nM | < 1000 nM
CC(C)c1nnc(Nc2ccc3nccc(-c4cnccn4)c3n2)s1 [Example 0282] |  |  | 1000 to 10000 nM | 1000 to 10000 nM
c1n[nH]cc1Nc1cnc2ccc(Nc3nnc(C4CCCO4)s3)nc2c1 (centres unmarked) [Example 0228] |  |  | < 1000 nM | < 1000 nM
CC(=O)N1CCC(Nc2cnc3ccc(Nc4nnc(C5CCCC5)s4)nc3c2)CC1 [Example 0063] | < 1000 nM | < 1000 nM |  | 
CN1CCCN(c2cnc3ccc(Nc4nnc(C5CCCC5)s4)nc3c2)CC1 [Example 0060] | 10000 to 50000 nM | < 1000 nM |  | 
c1ccc(Nc2cnc3ccc(Nc4nnc(C5CCCC5)s4)nc3c2)cc1 [Example 0200, N^2-(5-cyclopentyl-1,3,4-thiadiazol-2-yl)-N^7-phenyl-1,5-naphthyridine-2,7-diamine] | 1000 to 10000 nM | 1000 to 10000 nM |  | 
Cc1cnccc1-c1cnc2ccc(Nc3cc(C(C)C)cnn3)nc2c1 [Example 0361] |  |  | 1000 to 10000 nM | < 1000 nM
CC(C)c1nnc(Nc2ccc3nccc(-c4ccccn4)c3n2)s1 [Example 0281, 5-isopropyl-N-(8-(pyridin-2-yl)-1,5-naphthyridin-2-yl)-1,3,4-thiadiazole-2-amine] |  |  | 1000 to 10000 nM | 1000 to 10000 nM
O[C@@H]1CCN(c2cnc3ccc(Nc4nnc(C5CCCC5)s4)nc3c2)C1 [Example 0313] |  |  | 1000 to 10000 nM | < 1000 nM
c1nnc(Nc2ccc3ncc(-c4cnn(CCCN5CCNCC5)c4)cc3n2)s1 [Example 0305, N-(7-(1-(3-(piperazin-1-yl)propyl)-1H-pyrazol-4-yl)-1,5-naphthyridin-2-yl)-1,3,4-thiadiazole-2-amine hydrochloride] |  |  | < 1000 nM | < 1000 nM
CC(C)c1nnc(Nc2ccc3nccc(-c4cccc(C(N)=O)c4)c3n2)s1 [Example 0287] |  |  | < 1000 nM | < 1000 nM
c1cc(N2CCOCC2)ncc1Nc1cnc2ccc(Nc3nnc(C4CCCC4)s3)nc2c1 [Example 0066] | < 1000 nM | < 1000 nM |  | 
Cn1cc(-c2cnc3ccc(Nc4cc[nH]n4)nc3c2)cn1 [Example 0033, 7-(1-methyl-1H-pyrazol-4-yl)-N-(1H-pyrazol-3-yl)-1,5-naphthyridine-2-aminetrifluoroacetate] | 1000 to 10000 nM | 1000 to 10000 nM |  | 
COc1ccccc1Nc1cnc2ccc(Nc3nnc(C4CCCC4)s3)nc2c1 [Example 0219, N^2-(5-cyclopentyl-1,3,4-thiadiazol-2-yl)-N^7-(2-methoxyphenyl)-1,5-naphthyridine-2,7-diamine] |  |  | 10000 to 50000 nM | 1000 to 10000 nM
COc1ncccc1Nc1cnc2ccc(Nc3nnc(C4CCCC4)s3)nc2c1 [Example 0077] | 1000 to 10000 nM | 1000 to 10000 nM |  | 
CC(C)c1nnc(Nc2ccc3nccc(-c4cc[nH]c(=O)c4)c3n2)s1 [Example 0289, 4-(6-((5-isopropyl-1,3,4-thiadiazol-2-yl)amino)-1,5-naphthyridin-4-yl)pyridin-2(1H)-one] |  |  | < 1000 nM | 1000 to 10000 nM
COc1cc(Nc2cnc3ccc(Nc4nnc(C5CCCC5)s4)nc3c2)cc(OC)c1 [Example 0081] | 1000 to 10000 nM | < 1000 nM |  | 
CCC(C)c1nnc(Nc2ccc3ncc(-c4cnn(CCCN5CCCC5)c4)cc3n2)s1 (centres unmarked) [Example 0263] |  |  | < 1000 nM | < 1000 nM

Reference: patent US9783536B2, “Nitrogen-containing heterocyclic compound or salt thereof” (FUJIFILM Corporation, priority 2013, dated 2017)
